Data on six compounds can be found in ChEMBL document CHEMBL1157446, “Cubyl amides: novel P2X7 receptor antagonists” (Bioorg Med Chem Lett, 2008).

Activity calls are given as the source filed them. The calls are words filed in the database; no cut-off is given here.

Assay [1] has as its target T1, P2X purinoceptor 7 (Rattus norvegicus) (UniProt Q64663).
T1 sequence (whole entry): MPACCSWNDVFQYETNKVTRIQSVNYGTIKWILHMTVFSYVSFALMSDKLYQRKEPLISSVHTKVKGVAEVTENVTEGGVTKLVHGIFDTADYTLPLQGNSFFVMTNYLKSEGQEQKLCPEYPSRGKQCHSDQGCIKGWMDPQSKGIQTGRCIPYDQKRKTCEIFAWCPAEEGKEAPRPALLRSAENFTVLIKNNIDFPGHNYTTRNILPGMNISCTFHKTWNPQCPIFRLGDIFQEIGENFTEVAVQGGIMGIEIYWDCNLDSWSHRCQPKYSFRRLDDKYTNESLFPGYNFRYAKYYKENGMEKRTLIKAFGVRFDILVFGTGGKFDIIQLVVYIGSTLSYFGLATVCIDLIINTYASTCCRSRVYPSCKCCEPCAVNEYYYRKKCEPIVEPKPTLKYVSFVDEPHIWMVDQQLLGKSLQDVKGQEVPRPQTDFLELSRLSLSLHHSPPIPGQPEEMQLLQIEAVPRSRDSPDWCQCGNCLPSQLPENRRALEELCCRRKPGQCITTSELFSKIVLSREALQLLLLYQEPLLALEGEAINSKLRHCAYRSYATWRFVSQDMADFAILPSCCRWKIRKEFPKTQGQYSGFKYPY
Put plainly: Antagonist activity at P2X7R in BzATP-stimulated rat spinal cord assessed as decrease in fluorescent propidium iodide dye uptake at 1 uM. It is filed as functional.

For assay [2], the target named is P2Y purinoceptor 4 (Homo sapiens) (UniProt P51582). The assay can be described thus: Agonist activity at P2Y4 receptor expressed in HEK293 cells at 10 uM to 1 nM. It is filed as functional, cell-based.
P2Y purinoceptor 4 (Homo sapiens), sequence (P51582 whole entry): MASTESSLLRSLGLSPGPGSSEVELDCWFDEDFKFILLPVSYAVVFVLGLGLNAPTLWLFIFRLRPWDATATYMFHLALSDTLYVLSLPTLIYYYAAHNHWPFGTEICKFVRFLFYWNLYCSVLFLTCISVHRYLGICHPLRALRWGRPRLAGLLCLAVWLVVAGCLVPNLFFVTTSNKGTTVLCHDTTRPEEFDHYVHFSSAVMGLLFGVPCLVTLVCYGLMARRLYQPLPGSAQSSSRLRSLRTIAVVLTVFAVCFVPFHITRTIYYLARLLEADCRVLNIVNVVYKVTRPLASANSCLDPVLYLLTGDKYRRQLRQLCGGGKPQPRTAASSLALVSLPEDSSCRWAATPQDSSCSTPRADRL
For assay [3], the target named is P2Y purinoceptor 1 (Homo sapiens) (UniProt P47900). Put plainly: Activity at P2Y1 expressed in HEK293 cells at 10 uM to 1 nM. It is filed as cell-based.
P2Y purinoceptor 1 (Homo sapiens), sequence (P47900 whole entry): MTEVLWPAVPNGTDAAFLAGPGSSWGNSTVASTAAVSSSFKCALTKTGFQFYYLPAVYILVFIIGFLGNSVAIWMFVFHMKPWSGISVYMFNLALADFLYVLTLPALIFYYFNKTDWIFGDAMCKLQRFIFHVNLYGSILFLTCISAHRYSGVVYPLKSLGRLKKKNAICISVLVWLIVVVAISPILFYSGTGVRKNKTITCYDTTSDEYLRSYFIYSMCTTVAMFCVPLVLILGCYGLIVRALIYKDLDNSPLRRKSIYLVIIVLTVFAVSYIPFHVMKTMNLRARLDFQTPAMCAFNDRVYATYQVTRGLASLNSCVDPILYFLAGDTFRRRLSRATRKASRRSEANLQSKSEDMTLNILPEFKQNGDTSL
In assay [4] the target is P2Y purinoceptor 2 (Homo sapiens) (UniProt P41231). The assay can be described thus: Activity at P2Y2 receptor expressed in HEK293 cells at 10 uM to 1 nM. It is filed as cell-based.
P2Y purinoceptor 2 (Homo sapiens), sequence (P41231 whole entry): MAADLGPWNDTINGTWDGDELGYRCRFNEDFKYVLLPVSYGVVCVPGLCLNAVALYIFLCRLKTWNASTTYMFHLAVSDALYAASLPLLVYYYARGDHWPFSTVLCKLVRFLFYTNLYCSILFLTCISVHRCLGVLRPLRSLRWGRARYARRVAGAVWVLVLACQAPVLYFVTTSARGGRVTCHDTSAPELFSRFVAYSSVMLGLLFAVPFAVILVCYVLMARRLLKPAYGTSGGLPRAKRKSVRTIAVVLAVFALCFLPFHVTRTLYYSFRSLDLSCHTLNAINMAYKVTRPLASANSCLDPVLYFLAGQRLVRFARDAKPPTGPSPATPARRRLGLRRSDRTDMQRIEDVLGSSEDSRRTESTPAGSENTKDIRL

For the compound `O=C(NCC12C3C4C5C3C1C5C42)c1ccc(F)cc1` (centres undefined), the result in assay [1] was Active. Besides, the result in assay [2], in assay [3] and in assay [4] was inactive.
In the case of `O=C(NCC12C3C4C5C3C1C5C42)c1ccccc1F` (centres undefined), the result in assay [1] was Active. Also, the outcome in assay [2], in assay [3] and in assay [4] was inactive.
As for `O=C(NCC12CC3CC(CC(C3)C1)C2)c1ccccc1F`, the result in assay [1] was Active. The outcome in assay [2], in assay [3] and in assay [4] was inactive.
As for `COc1ccc(Cl)c(C(=O)NCC23CC4CC(CC(C4)C2)C3)c1`, in assay [1], the result was Active. Moreover, the result in assay [2], in assay [3] and in assay [4] was inactive.
For `O=C(NCC12CC3CC(CC(C3)C1)C2)c1ccc(F)cc1`, the outcome in assay [1] was Active. In addition, the outcome in assay [2], in assay [3] and in assay [4] was inactive.
Turning to `COc1ccc(Cl)c(C(=O)NCC23C4C5C6C4C2C6C53)c1` (centres undefined), the outcome in assay [1] was Active. In addition, the outcome in assay [2], in assay [3] and in assay [4] was inactive.
